From PMC12169614, “Exploring Long Arm Amide-Linked Side Chains in the Design of Antifungal Azole Inhibitors of Sterol 14α-Demethylase (CYP51)” (Journal of Medicinal Chemistry, 2025)

Tests used:
Y2411 Endog. ScCYP51 = test: MIC80 determination, strain Y2411; type: cell-based, S. cerevisiae; details: Saccharomyces cerevisiae
Outline: (§1)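 MIC80 values rest on three separate experiments, each measuring pools of 4 clones per strain in triplicate. Starting inoculum was OD600 0.005, equivalent to 1.5 × 10^4 CFU; cultures grew at 30 °C, 200 rpm, for 24 h (C. albicans) or 48 h (S. cerevisiae), with OD600 as read-out.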

Y570 OE CaCDR1B = test: MIC80 determination, strain Y570; type: cell-based, S. cerevisiae
Outline: as §1

Y2721 OE CpCYP51 = test: MIC80 determination, strain Y2721; type: cell-based, S. cerevisiae
Outline: as §1

Y2374 OE CgCYP51 = test: MIC80 determination, strain Y2374; type: cell-based, S. cerevisiae; details: Saccharomyces cerevisiae
Outline: as §1

Y2767 OE CauCYP51 = test: MIC80 determination, strain Y2767; type: cell-based, S. cerevisiae
Protocol: (§2) Cells were seeded at an OD600 nm of 0.005 (1.5 × 10^4 CFU), and the plates were incubated at 30 °C with shaking at 200 rpm for 48 h for S. cerevisiae strains and 24 h for C. albicans . Cell growth was assessed by measuring the OD600 nm using a Synergy 2 multimode plate reader (BioTek Instruments, VT, USA). Each MIC80 was determined using triplicate measurements for pools of 4 clones of each strain in three separate experiments.

Y2765 OE CauMDR1 = test: MIC80 determination, strain Y2765; type: cell-based, S. cerevisiae; details: Saccharomyces cerevisiae
Protocol: as §2

2711 CnCYP51 OE CnCPR = test: MIC80 determination, strain 2711; type: cell-based, S. cerevisiae
Outline: as §1

Y2649 OE CYP51 F1 RaCPR = test: MIC80 determination, strain Y2649; type: cell-based, S. cerevisiae
Outline: as §1

Y2651 OE CYP51 F5 RaCPR = test: MIC80 determination, strain Y2651; type: cell-based, S. cerevisiae; details: Saccharomyces cerevisiae
Outline: as §1

[1] = test system: Y2746 OE AfCYP51A AfCPR AfERG6; test: MIC80 determination, strain Y2746; type: cell-based, S. cerevisiae; details: Saccharomyces cerevisiae
Outline: as §1

[2] = test system: Y2747 OE AfCYP51B AfCPR AfERG6; test: MIC80 determination, strain Y2747; type: cell-based, S. cerevisiae
Outline: as §1

[3] = test system: Y2300 ScCYP51 overexpressed; test: Agarose (disk) diffusion assay, strain Y2300; type: cell-based, S. cerevisiae; details: 10 nmol/disk, 30 °C, 48 h
From the text: (§3) Final compounds were screened as racemic mixtures using agarose diffusion assays to visualize their inhibitory activity against a panel of recombinant S. cerevisiae strains i.e., S. cerevisiae strains expressing control levels of wild-type CYP51 (ScCYP51), overexpressed wild-type ScCYP51, overexpressed azole-resistant ScCYP51 Y140F/H mutations and overexpressed C. albicans efflux pumps MDR1a or CDR1B (Figure and Table S1).
(§4) The susceptibilities of S. cerevisiae and Candida species strains to azole compounds were observed as zones of growth inhibition in agarose diffusion assays. The disk diffusion assays were carried out as described by Keniya et al. Complete supplement mixture (CSM) agarose (0.6% agarose [wt/vol]; 20 mL of synthetic defined medium (SD); pH 6.8–7) was solidified in a rectangular Petri dish which was overlaid with CSM agarose (0.6% [wt/vol]; 5 mL; pH 6.8–7) seeded with yeast cells at an optical density (OD600) of 0.008 (118,000 cells per 1 mL of overlay). Azole compounds (10 nmol/disk) were applied to sterile BBL paper disks (Becton Dickinson Co., Sparks, MD) and placed on solidified overlays. Cell growth was assessed after incubation at 30 °C for 48 h.

[4] = test system: Y525 MFS efflux pump CaMDR1a overexpressed; test: Agarose (disk) diffusion assay, strain Y525; type: cell-based, S. cerevisiae; details: 10 nmol/disk, 30 °C, 48 h
Outline: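 Recombinant S. cerevisiae strains seeded at OD600 0.008 in CSM agarose overlay (0.6%, pH 6.8–7) on SD agarose. Racemic compounds applied at 10 nmol/disk on paper disks. Growth-inhibition zones assessed after 48 h at 30 °C.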

[5] = test system: Y570 ABC efflux pump CaCDR1B overexpressed; test: Agarose (disk) diffusion assay, strain Y570; type: cell-based, S. cerevisiae; details: 10 nmol/disk, 30 °C, 48 h
From the text: as §3, §4

wild-type CaCYP51 = wild-type CaCYP51 (Candida albicans, UniProt P10613); test: Reconstituted CYP51 activity assay, wild type; type: biochemical, C. albicans; details: 1 μM CaCyp51, 50 μM lanosterol; duplicate, mean ± SD
wild-type CaCYP51, sequence (P10613 whole entry): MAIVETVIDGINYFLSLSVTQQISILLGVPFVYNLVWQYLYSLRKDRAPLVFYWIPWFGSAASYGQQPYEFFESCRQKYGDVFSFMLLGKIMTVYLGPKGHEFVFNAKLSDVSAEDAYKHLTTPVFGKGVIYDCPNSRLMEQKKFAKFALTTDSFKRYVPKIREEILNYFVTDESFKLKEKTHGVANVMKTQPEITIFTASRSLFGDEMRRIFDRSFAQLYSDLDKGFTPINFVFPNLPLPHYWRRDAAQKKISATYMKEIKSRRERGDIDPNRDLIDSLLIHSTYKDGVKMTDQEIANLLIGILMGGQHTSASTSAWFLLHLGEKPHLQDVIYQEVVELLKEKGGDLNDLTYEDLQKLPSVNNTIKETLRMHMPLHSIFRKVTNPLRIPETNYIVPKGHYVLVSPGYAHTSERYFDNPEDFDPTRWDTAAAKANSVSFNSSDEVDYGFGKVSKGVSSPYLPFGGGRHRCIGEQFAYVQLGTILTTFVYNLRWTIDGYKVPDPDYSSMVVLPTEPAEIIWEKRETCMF
Protocol: (§5) The reconstituted CYP51 assay previously described contained 1 μM CaCyp51, 2 μM Homo sapiens cytochrome P450 reductase and 50 μM lanosterol in a final volume of 500 μL. After the addition of azole in DMSO (2.5 μL), reactions were incubated at 37 °C for 10 min prior to initiation by the addition of 100 μL 20 mM β-NADPH-Na4. Sterol substrates and products were extracted with ethyl acetate, derivatized with N,O-bis(trimethylsilyl)-trifluoroacetamide (BSTFA)–trimethylchlorosilane (TMCS) (99:1) in the presence of anhydrous pyridine, and analyzed by GC/MS as described previously. IC50 determinations were performed in duplicate. Nonlinear regression of inhibitor concentration vs normalized response was calculated by GraphPad Prism 10.4.0 for Windows (GraphPad Software, Boston, Massachusetts, USA, www.graphpad.com).

CaCYP51 Y132F = CaCYP51 Y132F (Candida albicans, UniProt P10613, Y132F); test: Reconstituted CYP51 activity assay, Y132F; type: biochemical, C. albicans; details: 1 μM CaCyp51, 50 μM lanosterol; duplicate, mean ± SD
CaCYP51 Y132F, sequence (P10613 whole entry Y132F): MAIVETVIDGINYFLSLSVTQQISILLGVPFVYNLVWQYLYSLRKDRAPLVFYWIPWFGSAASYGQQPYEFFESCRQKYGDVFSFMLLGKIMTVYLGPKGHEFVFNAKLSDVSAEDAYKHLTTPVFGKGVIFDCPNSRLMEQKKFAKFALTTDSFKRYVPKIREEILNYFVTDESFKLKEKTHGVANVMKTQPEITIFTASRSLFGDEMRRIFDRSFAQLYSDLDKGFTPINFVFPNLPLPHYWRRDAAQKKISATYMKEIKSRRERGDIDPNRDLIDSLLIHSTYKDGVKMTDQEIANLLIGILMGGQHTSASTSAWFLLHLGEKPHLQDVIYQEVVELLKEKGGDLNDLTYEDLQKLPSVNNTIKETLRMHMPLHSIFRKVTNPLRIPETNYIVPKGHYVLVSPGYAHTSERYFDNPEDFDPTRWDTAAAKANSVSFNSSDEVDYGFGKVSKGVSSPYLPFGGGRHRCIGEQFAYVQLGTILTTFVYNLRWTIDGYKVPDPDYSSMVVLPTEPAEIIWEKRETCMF
Protocol: as §5

CaCYP51 Y132H + K143R = CaCYP51 Y132H + K143R (Candida albicans, UniProt P10613, K143R/Y132H); test: Reconstituted CYP51 activity assay, Y132H + K143R; type: biochemical, C. albicans; details: 1 μM CaCyp51, 50 μM lanosterol; duplicate, mean ± SD
CaCYP51 Y132H + K143R, sequence (P10613 whole entry Y132H/K143R): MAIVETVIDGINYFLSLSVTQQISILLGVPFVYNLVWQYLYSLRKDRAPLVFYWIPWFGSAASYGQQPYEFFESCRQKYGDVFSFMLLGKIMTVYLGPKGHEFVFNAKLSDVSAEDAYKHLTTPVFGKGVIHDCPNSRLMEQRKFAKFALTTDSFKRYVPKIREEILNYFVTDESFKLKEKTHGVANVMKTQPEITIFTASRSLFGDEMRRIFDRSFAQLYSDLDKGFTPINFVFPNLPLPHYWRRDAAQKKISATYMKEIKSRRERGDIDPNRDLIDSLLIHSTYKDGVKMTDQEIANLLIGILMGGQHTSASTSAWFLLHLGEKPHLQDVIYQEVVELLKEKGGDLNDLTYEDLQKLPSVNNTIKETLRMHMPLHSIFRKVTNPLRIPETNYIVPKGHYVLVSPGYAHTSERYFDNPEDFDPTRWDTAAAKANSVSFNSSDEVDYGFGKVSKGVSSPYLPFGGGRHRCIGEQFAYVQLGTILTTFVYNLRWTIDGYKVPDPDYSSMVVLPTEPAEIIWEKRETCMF
Protocol: as §5

CYP1A2 = CYP1A2 (Homo sapiens, UniProt P05177); test: CYP IC50 profile, CYP1A2; type: biochemical; details: human liver drug metabolizing enzyme; read-out: CYP IC50 1A2
CYP1A2, sequence (P05177 whole entry): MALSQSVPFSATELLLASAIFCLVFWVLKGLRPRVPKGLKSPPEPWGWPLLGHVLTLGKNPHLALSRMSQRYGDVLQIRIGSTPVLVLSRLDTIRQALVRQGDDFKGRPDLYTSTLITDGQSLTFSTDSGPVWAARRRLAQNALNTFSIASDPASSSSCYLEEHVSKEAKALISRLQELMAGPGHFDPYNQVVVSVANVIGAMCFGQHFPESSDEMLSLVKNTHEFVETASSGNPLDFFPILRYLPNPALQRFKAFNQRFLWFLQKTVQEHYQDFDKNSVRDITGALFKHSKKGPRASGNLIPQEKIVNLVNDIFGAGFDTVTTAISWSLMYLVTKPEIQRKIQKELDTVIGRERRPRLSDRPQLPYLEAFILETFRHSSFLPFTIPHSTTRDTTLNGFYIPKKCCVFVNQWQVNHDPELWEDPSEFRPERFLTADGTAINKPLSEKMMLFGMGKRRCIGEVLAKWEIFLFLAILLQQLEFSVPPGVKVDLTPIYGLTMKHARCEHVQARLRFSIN

CYP2C19 = CYP2C19 (Homo sapiens, UniProt P33261); test: CYP IC50 profile, CYP2C19; type: biochemical; details: human liver drug metabolizing enzyme; read-out: CYP IC50 2C19
CYP2C19, sequence (P33261 whole entry): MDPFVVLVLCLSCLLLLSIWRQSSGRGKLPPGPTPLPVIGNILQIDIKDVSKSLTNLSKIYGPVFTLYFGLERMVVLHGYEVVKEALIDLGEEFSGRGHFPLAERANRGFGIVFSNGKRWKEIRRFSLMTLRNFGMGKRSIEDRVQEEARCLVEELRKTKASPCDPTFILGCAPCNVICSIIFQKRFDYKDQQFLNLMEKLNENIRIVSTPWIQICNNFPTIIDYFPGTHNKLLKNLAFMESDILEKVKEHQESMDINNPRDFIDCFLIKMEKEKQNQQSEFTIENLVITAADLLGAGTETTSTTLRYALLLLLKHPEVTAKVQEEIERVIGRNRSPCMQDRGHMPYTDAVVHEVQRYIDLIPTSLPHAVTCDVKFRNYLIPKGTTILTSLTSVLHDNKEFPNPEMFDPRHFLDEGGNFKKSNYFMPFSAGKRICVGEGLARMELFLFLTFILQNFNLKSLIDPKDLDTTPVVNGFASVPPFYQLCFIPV

O=C(NCC(O)(Cn1cncn1)c1ccc(F)cc1F)c1ccc(-c2ccc(OC(F)(F)F)cc2)cc1 (stereo not drawn) [Compound 22, N-(2-(2,4-Difluorophenyl)-2-hydroxy-3-(1H-1,2,4-triazol-1-yl)propyl)-4’-(trifluoromethoxy)-[1,1’-biphenyl]-4-carboxamide]
MIC80 (Y2411 Endog. ScCYP51; strain Y2411 Endog. ScCYP51, SD pH 6.8, 30 °C, 48 h): 0.03 ± 0.023 µM
MIC (Y2411 Endog. ScCYP51; supplement csv, read-out: MIC (nM) S. cerevisiae Y2411): 30 ± 23 nM
MIC (Y570 OE CaCDR1B; Candida albicans, read-out: MIC (nM) C. albicans model Y570): 5800 nM
MIC80 (Y570 OE CaCDR1B; Saccharomyces cerevisiae, 48 h, pH 6.8): 5.8 µM
MIC80 (Y2721 OE CpCYP51; Saccharomyces cerevisiae): 0.099 µM
MIC (Y2721 OE CpCYP51; read-out: MIC (nM) C. parapsilosis model Y2721): 99 nM
MIC80 (Y2374 OE CgCYP51): 0.101 µM
MIC (Y2374 OE CgCYP51; read-out: MIC (nM) C. glabrate model Y2374): 101 nM
MIC (Y2767 OE CauCYP51; Candidozyma auris, read-out: MIC (nM) C. auris model Y2767): 110 ± 10 nM
MIC80 (Y2767 OE CauCYP51; Saccharomyces cerevisiae): 0.11 ± 0.01 µM
MIC80 (Y2765 OE CauMDR1): 0.059 ± 0.014 µM
MIC80 (2711 CnCYP51 OE CnCPR; Saccharomyces cerevisiae): 0.018 µM
MIC (2711 CnCYP51 OE CnCPR; read-out: MIC (nM) C. neoformans model Y2711): 18 nM
MIC (Y2649 OE CYP51 F1 RaCPR; Rhizopus arrhizus, read-out: MIC (nM) R. arrhizus model Y2649): 470 ± 240 nM
MIC80 (Y2649 OE CYP51 F1 RaCPR; Saccharomyces cerevisiae): 0.47 ± 0.24 µM
MIC80 (Y2651 OE CYP51 F5 RaCPR): 1.36 ± 0.907 µM
MIC80 [1]: 12.4 µM
MIC ([2]; Aspergillus fumigatus, read-out: MIC (nM) A. fumigatus model Y2747): 72 ± 29 nM
MIC80 ([2]; Saccharomyces cerevisiae): 0.072 ± 0.029 µM
zone of growth inhibition (inhibitory activity in words) [3]: visible reduction in potency
zone of growth inhibition (inhibitory activity in words) [4]: no effect on its potency
zone of growth inhibition (inhibitory activity in words) [5]: conferred resistance
IC50 (wild-type CaCYP51): 0.669 µM
IC50 (CaCYP51 Y132F): 1.24 ± 0.0379 µM
IC50 (CaCYP51 Y132H + K143R): 8.49 ± 1.27 µM
IC50 (CYP1A2): 9.33 ± 1.39 µM
IC50 (CYP2C19): 14.5 ± 2.23 µM
